Data on 26 compounds can be found in patent US11352322B2, “Cyclopropyl-amide compounds as dual LSD1/HDAC inhibitors” (Jubilant Epicore LLC, priority 2016, dated 2022).

Counter-ions that a name gives are not always drawn. Like-named read-outs stand apart in the source and are kept apart here.

The subject of one series is MM1S. Description: Anticancer activity: Alamar Blue assay, MM1S. Particulars: Homo sapiens, MM1.S, read-out: MM1S EC50. In kind it is cell-based. (Resazurin is reduced to fluorescent resorufin, in cell work by metabolically active cells.)
A short description of series [1]: Metabolic stability in liver microsomes, HLM. Particulars: 1 μM, NADPH. In general terms: Liver microsomes are a subcellular fraction often used to study metabolism.
Procedure: (§1) The microsomal suspension was prepared by adding liver microsomes to 100 mM potassium phosphate buffer (pH7.4) to give a final protein concentration of 0.5 mg/mL. The stock solution of NCE (10 mM in DMSO) was added to the microsomes to provide a final concentration of 1 μM. […] Samples were vortexed and centrifuged at 5,000 rpm for 10 min to remove proteins. Supernatant were analyzed on LC-MS/MS.
Series [2] in a line: Metabolic stability in liver microsomes, MLM. Particulars: 1 μM, NADPH.
Procedure: as §1

Turning to `Cc1noc(C)c1-c1ccc(C2CC2NCC2CN(CCCc3cccc(C(=O)NO)c3)C2)cc1` (stereo not drawn) [Example 65, 3-(3-(3-(((2-(4-(3,5-dimethylisoxazol-4-yl)phenyl)cyclopropyl)amino)methyl)azetidin-1-yl)propyl)-N-hydroxybenzamide TFA Salt], in the series with MM1S (MM1S cells), the EC50 (in general, the concentration that produces a half-maximal response) came to 26 nM.
On to `O=C(CCCCCCNC(=O)c1ccc(CNC2CC2c2ccc(F)cc2)cc1)NO` (stereo not drawn) [Example 32, 4-(((2-(4-fluorophenyl)cyclopropyl)amino)methyl)-N-(7-(hydroxyamino)-7-oxoheptyl)benzamide TFA Salt], for which, in series [1], the “Metabolic stability HLM % remaining in 30 min” value was determined as 41%. For the same compound, the concentration giving a half-maximal response (EC50) in the series with MM1S stood at 17 nM. Further, the “Metabolic stability MLM % remaining in 30 min” value in series [2] amounted to 22%.
For `O=C(NO)c1ccc(CCCN2CCC(CNC3CC3c3cccc(F)c3)CC2)cc1` (stereo not drawn) [Example 49, 4-(3-(4-(((2-(3-fluorophenyl)cyclopropyl)amino)methyl)piperidin-1-yl)propyl)-N-hydroxybenzamide TFA Salt], in that order: 48%, 62 nM and 34%.
Turning to `O=C(NO)c1ccc(CCCN2CCc3cc(CNC4CC4c4ccc(F)cc4)ccc3C2)cc1` (stereo not drawn) [Example 78, 4-(3-(6-(((2-(4-fluorophenyl)cyclopropyl)amino)methyl)-3,4-dihydroisoquinolin-2(1H)-yl)propyl)-N-hydroxybenzamide TFA Salt], the “Metabolic stability HLM % remaining in 30 min” value in series [1] is listed as 72%. For the same compound, in series [2], the “Metabolic stability MLM % remaining in 30 min” value stood at 32%.
On to `Cc1noc(C)c1-c1ccc(C2CC2NCc2ccc(/C=C/C(=O)NO)cc2)cc1` (stereo not drawn) [Example 6, (E)-3-(4-(((2-(4-(3,5-dimethylisoxazol-4-yl)phenyl)cyclopropyl)amino)methyl)phenyl)-N-hydroxyacrylamide TFA Salt], for which the “Metabolic stability HLM % remaining in 30 min” value in series [1] was 44%. For the same compound, the EC50 with MM1S turned out to be 34 nM. The “Metabolic stability MLM % remaining in 30 min” value in series [2] was less than 5%.
Take `O=C(NO)c1cnc(N2CCC(NC3CC3c3ccccc3)CC2)nc1` (stereo not drawn) [Example 9, 2-[4-(2-Phenyl-cyclopropylamino)-piperidin-1-yl]-pyrimidine-5-carboxylic Acid Hydroxyamide TFA Salt]: the “Metabolic stability HLM % remaining in 30 min” value in series [1] came to 65%. In addition, the 50% effective concentration (EC50) in the series with MM1S was 4 nM. Further, in series [2], the “Metabolic stability MLM % remaining in 30 min” value amounted to 50%.
In the case of `O=C(/C=C/c1ccc(CNC2CC2c2ccc(F)cc2)cc1)NO` (stereo not drawn) [Example 2, (E)-3-(4-{[2-(4-Fluoro-phenyl)-cyclopropylamino]-methyl}-phenyl)-N-hydroxy-acrylamide TFA Salt], the “Metabolic stability HLM % remaining in 30 min” value in series [1] is listed as 41%. The “Metabolic stability MLM % remaining in 30 min” value in series [2] stood at 19%.
As to `O=C(NO)c1ccc(CCC(=O)N2CCN(C(=O)CNC3CC3c3ccccc3)CC2)cc1` (stereo not drawn) [Example 92, N-hydroxy-4-(3-oxo-3-(4-(2-((2-phenylcyclopropyl)amino)acetyl)piperazin-1-yl)propyl)benzamide TFA Salt], the “Metabolic stability HLM % remaining in 30 min” value in series [1] is 95%. Further, the EC50 with MM1S stood at 1400 nM. For the same compound, the “Metabolic stability MLM % remaining in 30 min” value in series [2] worked out at 91%.
The matching figures for `COc1ccc(C2CC2NCC2CCN(c3ncc(C(=O)NO)cn3)CC2)cc1` (stereo not drawn) [Example 18, N-hydroxy-2-(4-(((2-(4-methoxyphenyl)cyclopropyl)amino)methyl)piperidin-1-yl)pyrimidine-5-carboxamide TFA Salt]: 41%, 3 nM and 28%.
For `Nc1ccccc1NC(=O)c1ccc(CCCN2CC(CNC3CC3c3ccc(F)cc3)C2)cc1` (stereo not drawn) [Example 126, N-(2-aminophenyl)-4-(3-(3-(((2-(4-fluorophenyl)cyclopropyl)amino)methyl)azetidin-1-yl)propyl)benzamide TFA Salt], the “Metabolic stability HLM % remaining in 30 min” value in series [1] is on record as 79%. For the same compound, the “Metabolic stability MLM % remaining in 30 min” value in series [2] amounted to 76%.
Take `Nc1ccccc1NC(=O)c1ccc(CCCN2CCC(CNC3CC3c3ccccc3)CC2)cc1` (stereo not drawn) [Example 121, N-(2-aminophenyl)-4-(3-(4-(((2-phenylcyclopropyl)amino)methyl)piperidin-1-yl)propyl)benzamide TFA Salt]: in series [1], the “Metabolic stability HLM % remaining in 30 min” value was 36%. Moreover, the EC50 in the series with MM1S came out at 3 nM. In series [2], the “Metabolic stability MLM % remaining in 30 min” value worked out at 42%.
The matching figures for `O=C(NO)c1ccc(CCCn2cnc(CNC3CC3c3ccc(F)c(F)c3)c2)cc1` (stereo not drawn) [Example 73, 4-(3-(4-(((2-(3,4-difluorophenyl)cyclopropyl)amino)methyl)-1H-imidazol-1-yl)propyl)-N-hydroxybenzamide TFA Salt]: 52%, 540 nM and 53%.
For the compound `O=C(NO)c1cnc(N2CCC(CNC3CC3c3ccc(OCc4ccc(F)cc4)cc3)CC2)nc1` (stereo not drawn) [Example 11, 2-(4-(((2-(4-((4-fluorobenzyl)oxy)phenyl)cyclopropyl)amino)methyl)piperidin-1-yl)-N-hydroxypyrimidine-5-carboxamide TFA Salt], the “Metabolic stability HLM % remaining in 30 min” value in series [1] was 44%. In the series on MM1S, the 50% effective concentration (EC50) worked out at 18 nM. For the same compound, the “Metabolic stability MLM % remaining in 30 min” value in series [2] was determined as 14%.
Turning to `COc1ccc(C2CC2NCc2cn3c(n2)CN(c2ncc(C(=O)NO)cn2)CC3)cc1` (stereo not drawn) [Example 24, N-hydroxy-2-(2-(((2-(4-methoxyphenyl)cyclopropyl)amino)methyl)-5,6-dihydroimidazo[1,2-a]pyrazin-7(8H)-yl)pyrimidine-5-carboxamide TFA Salt], in series [1], the “Metabolic stability HLM % remaining in 30 min” value is on record as 71%. In the series on MM1S, the EC50 was determined as 9 nM. Further, the “Metabolic stability MLM % remaining in 30 min” value in series [2] is given as 74%.
The matching figures for `O=C(NO)c1cnc(N2CCn3cc(CNC4CC4c4ccc(F)cc4)nc3C2)nc1` (stereo not drawn) [Example 25, 2-(2-(((2-(4-fluorophenyl)cyclopropyl)amino)methyl)-5,6-dihydroimidazo[1,2-a]pyrazin-7(8H)-yl)-N-hydroxypyrimidine-5-carboxamide TFA Salt]: 75%, 11 nM and 85%.
Turning to `O=C(CCCCCNC1CC1c1ccccc1)NO` (stereo not drawn) [Example 29, N-hydroxy-6-((2-phenylcyclopropyl)amino)hexanamide TFA Salt], the “Metabolic stability HLM % remaining in 30 min” value in series [1] is greater than 95%. Further, in series [2], the “Metabolic stability MLM % remaining in 30 min” value was 90%.
As to `Nc1ccccc1NC(=O)c1ccc(CCCN2CCC(CNC3CC3c3ccc(C(=O)N4CCCCC4)cc3)CC2)cc1` (stereo not drawn) [Example 125, N-(2-aminophenyl)-4-(3-(4-(((2-(4-(piperidine-1-carbonyl)phenyl)cyclopropyl)amino)methyl)piperidin-1-yl)propyl)benzamide TFA Salt], in series [1], the “Metabolic stability HLM % remaining in 30 min” value was 34%. Also, the “Metabolic stability MLM % remaining in 30 min” value in series [2] is reported as 49%.
As to `O=C(NO)c1cnc(N2CCC(NC3CC3c3ccc(-c4ccc(Cl)cc4)cc3)CC2)nc1` (stereo not drawn) [Example 13, 2-(4-((2-(4′-chloro-[1,1′-biphenyl]-4-yl)cyclopropyl)amino)piperidin-1-yl)-N-hydroxypyrimidine-5-carboxamide TFA Salt], the “Metabolic stability HLM % remaining in 30 min” value in series [1] came out at 57%. The EC50 in the series on MM1S was 24 nM. Besides, in series [2], the “Metabolic stability MLM % remaining in 30 min” value worked out at 23%.
For `COc1ccc(C2CC2NCC2CCN(CCCc3ccc(C(=O)Nc4ccccc4N)cc3)CC2)cc1` (stereo not drawn) [Example 123, N-(2-aminophenyl)-4-(3-(4-(((2-(4methoxyphenyl)cyclopropyl)amino)methyl)piperidin-1-yl)propyl)benzamide TFA Salt], the “Metabolic stability HLM % remaining in 30 min” value in series [1] is recorded as 82%. In addition, in the series on MM1S, the EC50 was determined as 9 nM. In addition, the “Metabolic stability MLM % remaining in 30 min” value in series [2] stood at 72%.
In the case of `O=C(/C=C/c1ccc(CNC2CC2c2ccc(C3CC3)cc2)cc1)NO` (stereo not drawn) [Example 1, (E)-3(4(((2(4cyclopropylphenyl)cyclopropl)amino)methyl)phenyl)-N-hydroxyacrylamide], the “Metabolic stability HLM % remaining in 30 min” value in series [1] was 21%. For the same compound, in series [2], the “Metabolic stability MLM % remaining in 30 min” value is reported as 5%.
For `O=C(NO)c1cccc(CNC2CC2c2ccc(Br)cc2)c1` (stereo not drawn) [Example 26, 3-(((2-(4-bromophenyl)cyclopropyl)amino)methyl)-N-hydroxybenzamide TFA Salt], in that order: 30% and 13%.
`O=C(NO)c1ccc2c(c1)CN(C(=O)CCCNC1CC1c1ccc(F)cc1)C2` (stereo not drawn) [Example 108, 2-(4-((2-(4-fluorophenyl)cyclopropyl)amino)butanoyl)-N-hydroxyisoindoline-5-carboxamide TFA Salt]: in series [1], the “Metabolic stability HLM % remaining in 30 min” value is recorded as greater than 95%. For the same compound, the EC50 with MM1S was 584 nM. Moreover, the “Metabolic stability MLM % remaining in 30 min” value in series [2] came to 85%.
`O=C(NO)c1cnc(N2CCC(CNC3CC3c3ccc(-c4cncnc4)cc3)CC2)nc1` (stereo not drawn) [Example 17, N-hydroxy-2-(4-(((2-(4-(pyrimidin-5-yl)phenyl)cyclopropyl)amino)methyl)piperidin-1-yl)pyrimidine-5-carboxamide TFA Salt]: the “Metabolic stability HLM % remaining in 30 min” value in series [1] turned out to be 69%. Besides, the concentration for a half-maximal effect (EC50) with MM1S amounted to 17 nM. The “Metabolic stability MLM % remaining in 30 min” value in series [2] amounted to 57%.
For the compound `O=C(CCCCCCNC(=O)c1ccc(CNC2CC2c2ccccc2)cc1)NO` (stereo not drawn) [Example 31, N-(6-Hydroxycarbamoyl-hexyl)-4-[(2-phenyl-cyclopropylamino)-methyl]-benzamide TFA Salt], the “Metabolic stability HLM % remaining in 30 min” value in series [1] turned out to be 39%. Besides, the “Metabolic stability MLM % remaining in 30 min” value in series [2] is 18%.
As to `Nc1ccccc1NC(=O)/C=C/c1ccc(CNC2CC2c2ccc(F)cc2)cc1` (stereo not drawn) [Example 120], in series [1], the “Metabolic stability HLM % remaining in 30 min” value was determined as 27%. The “Metabolic stability MLM % remaining in 30 min” value in series [2] is listed as 16%.
The matching figures for `O=C(NO)c1ccc(CN2CCC(CNC3CC3c3ccccc3)CC2)cc1` (stereo not drawn) [Example 36, N-Hydroxy-4-{4-[(2-phenyl-cyclopropylamino)-methyl]-piperidin-1-ylmethyl}-benzamide TFA Salt]: 63% and 53%.
